# Laboratory results as given in patent US12129255B2, “Pyrido [2,3-d]pyrimidine derivatives as inhibitors of human immunodeficiency virus replication” (VIIV HEALTHCARE UK (No. 5) LIMITED, priority 2019, dated 2024).
# Read-outs that look alike come from different tables or passages of the source.
# How the values were obtained:
# [1] = Metabolism in liver microsomes (dog); assay type: in vitro ADME
# Protocol: Liver microsomes from human, rat dog and monkey were thawed and diluted to a final concentration of 1 mg/mL in 100 mM potassium phosphate buffer (pH 7.4). Test compounds and controls were prepared at 100× final concentration of 1 μM in 1:1 acetonitrile:water (v/v) and aliquoted into microsomal mixture. The mixture was preincubated at 37° C. in a shaking water bath for 10 minutes. The incubations were performed in duplicate. Three controls were included in the incubations; warfarin, phenacetin, and verapamil. After the preincubation, the reaction was initiated with NADPH at a final concentration of 1 mM. At 0, 5, 15, 30, 45 and 60 minutes, 25 μL of sample was removed and quenched with 300 μL of acetonitrile containing internal standard (Telmisartan). The samples were vortexed for 5 minutes at 1200 rpm and then centrifuged at 4000 rpm for 10 min. A 100 μL aliquot of supernatant was diluted three-fold with water and injected on an Exion LC 4500 Triple Quad LC-MS/MS system. Results were reported as a percentage of parent remaining and was calculated from peak area ratios of test compound remaining after at each time point and compared to time zero incubation.
# [2] = system: recombinant NL4-3 virus; assay: Antiviral activity toward recombinant NL4-3 Renilla luciferase virus in MT-2 cells; assay type: cell-based, HIV
# Protocol: MT-2 cells, 293T cells and the proviral DNA clone of NL4-3 virus were obtained from the NIH AIDS Research and Reference Reagent Program. MT-2 cells were propagated in RPMI 1640 media supplemented with 10% heat inactivated fetal bovine serum (FBS), […]. The 293T cells were propagated in DMEM media supplemented with 10% heat inactivated FBS, […]. A recombinant NL4-3 proviral clone, in which a section of the nef gene was replaced with the Renilla luciferase gene, was used to make the reference virus used in these studies. The recombinant virus was prepared through transfection of the recombinant NL4-3 proviral clone into 293T cells using Transit-293 Transfection Reagent from Mirus Bio LLC (Madison, WI). Supernatant was harvested after 2-3 days and the amount of virus present was titered in MT-2 cells using luciferase enzyme activity as a marker by measuring luciferase enzyme activity. Luciferase was quantitated using the EnduRen Live Cell Substrate from Promega (Madison, WI). Antiviral activities of compounds toward the recombinant virus were quantified by measuring luciferase activity in MT-2 cells infected for 4-5 days with the recombinant virus in the presence of serial dilutions of the compound. […]
# [3] = system: CYP2B6; assay: Cytochrome P450 (CYP2B6) induction in cryopreserved human hepatocytes, mRNA fold-change method; assay type: in vitro ADME; conditions: hepatocytes from three donors, 0.12 to 30 μM, 48 hours; Example 1 all three donors, Example 60.2 2 of 3 donors
# Protocol: Following the guidance of the FDA (“In Vitro Metabolism- and Transporter-Mediated Drug-Drug Interaction Studies Guidance for Industry”), the potential of Example 1 and Example 60.2 to induce CYP2B6 expression was tested using hepatocytes from the same three individual donors (rather than pooled donors), and changes in enzyme mRNA levels were evaluated using the “fold-change method”. In this test a fold-change in mRNA levels less than 2-fold is considered a negative finding, while a change 2-fold is considered a positive finding.
# Compounds were tested in a CYP induction assay using inducible cryopreserved human primary hepatocytes from three donors to determine the potential to cause induction (as measured by an increase in mRNA transcription) of CYP2B6. […] At the end of the incubation, the integrity of cell monolayers, cell density and viability were evaluated to assess cytotoxicity effects. […] Samples were then used in reverse transcription polymerase chain reactions (RT-PCR) to quantify the amount of specific mRNA species encoding the human CYP2B6 gene.
# The induction potential of test compounds and controls was compared to known CYP2B6 inducer Phenobarbital (1000 μM). The results of this assay are expressed as fold induction. […] The cytotoxicity was also assessed in parallel to avoid false positive CYP induction results due to cytotoxicity. […]
# [4] = Cytotoxicity in uninfected MT2 cells, XTT colorimetric assay; assay type: cell-based; conditions: human, day 4, XTT
# Protocol: Compound cytotoxicity and the corresponding CC50 values were determined using the same protocol as described in the antiviral assay except that uninfected cells were used. Cytotoxicity was assessed on day 4 in uninfected MT2 cells by using an XTT (2,3-bis[2-Methoxy-4-nitro-5-sulfophenyl]-2H-tetrazolium-5-carboxyanilide inner salt)-based colorimetric assay (Sigma-Aldrich, St Louis, Mo).
structure (smiles),measurement,setting,value
"Cn1nc(NS(C)(=O)=O)c2c(Cl)ccc(-n3c([C@H](Cc4cc(F)cc(F)c4)NC(=O)Cn4nc(C(F)F)c5c4C(F)(F)[C@@H]4C[C@H]54)nc4nc(OCCC(F)(F)F)ccc4c3=O)c21 (atropisomer, axis not shown; (P)) [Example 1, N—((S)-1-((3P)-3-(4-chloro-1-methyl-3-(methylsulfonamido)-1H-indazol-7-yl)-4-oxo-7-(3,3,3-trifluoropropoxy)-3,4-dihydropyrido[2,3-d]pyrimidin-2-yl)-2-(3,5-difluorophenyl)ethyl)-2-((3bS,4aR)-3-(difluoromethyl)-5,5-difluoro-3b,4,4a,5-tetrahydro-1H-cyclopropa[3,4]cyclopenta[1,2-c]pyrazol-1-yl)acetamide]",stability in dog liver microsomes relative to Example 60.2,[1]; Example 1 versus Example 60.2,six times more stable
same,half-life at 1 μM,"[1]; dog, liver microsomes, pH 7.4, 1 μM compound, 1 mg/mL microsomes, NADPH, read-out: Dog liver microsome T1/2",1.75 h
same,EC50,"[2]; Human immunodeficiency virus 1, NL43, MT2, read-out: EC50 (anti-HIV virology assay, revised average)",0.025 ± 0.008 nM
same,EC50,"[2]; Human immunodeficiency virus 1, NL43, MT2, read-out: EC50 when initially tested",0.034 nM
same,CYP2B6 induction finding (mRNA fold-change method),[3],negative finding (a fold-change in mRNA levels less than 2-fold is considered a negative finding)
same,CC50 at 4 days,[4],> 500 nM
